Measurements as given in patent publication US7414023B2, “Peptide ligands for prostate specific antigen” (Licentia Ltd., priority 2000, dated 2008).
Bridge positions count the residues as written; N and C are the ends. Peptide text beside a SMILES is read from it.

Key:
Design in all cases: PSA was purified from human seminal fluid as described previously (3); from tissue; host or cells: human seminal fluid
PSA [1] = biological target: T1, PSA (Homo sapiens, UniProt P07288); assay: Enzyme activity of PSA with chromogenic substrate S-2586; type: biochemical; conditions: GST-peptides, S-2586; for minimum peptide concentration affecting the activity: PSA enzyme activity
T1 sequence (P07288 25-261): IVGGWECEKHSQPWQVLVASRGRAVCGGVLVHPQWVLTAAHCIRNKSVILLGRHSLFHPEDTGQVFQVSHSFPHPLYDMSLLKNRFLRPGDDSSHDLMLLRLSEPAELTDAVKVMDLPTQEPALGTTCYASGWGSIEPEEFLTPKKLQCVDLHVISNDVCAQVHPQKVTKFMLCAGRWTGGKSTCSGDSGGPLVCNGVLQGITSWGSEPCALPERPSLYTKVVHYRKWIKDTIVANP
Description: The enzyme activity of PSA was studied in the presence of peptides alone or together with Zn^2+ by using the chymotrypsin substrate S-2586 (MeO-Suc-Arg-Pro-Tyr-pNA) (Chromogenix, Mölndal, Sweden). […] PSA (333 nM) was incubated with a 1-100-fold molar excess of GST-peptide or 100-fold excess of synthetic peptide in TBS buffer, pH 7.8 containing 0.5 g/L BSA for 1 h at 22° C. The effect of Zn^2+ on the enzyme activity of PSA was studied by including 1-200 μM of ZnCl2 in the reaction buffer. The combined effect of peptides and Zn2+ on the enzyme activity of PSA was studied by incubating PSA (333 nM) with peptide (333 nM) in the buffer containing 1-200 μM Zn^2+ for 1 h. After addition of substrate to a final concentration 0.2 mM, the absorbance was monitored at 5-min intervals for 2 h at 405 nm on a Labsystems Multiskan MCC/340 photometer (Labsystems, Helsinki, Finland). As a control, the effect of wild type GST on the enzyme activity of PSA was tested.
In the experiments, PSA (0.33 μM) was incubated with increasing concentrations of GST-C-4 (0-100-fold molar excess) for 1 h, after which the chromogenic substrate S-2586 was added and enzyme activity was monitored by measuring the absorbance at 405 nm. Data represent mean values from duplicate wells ±SE.
PSA (0.33 μM) was incubated with chemically synthesized peptides (100-fold molar excess) for 1 h, after which the chromogenic substrate S-2586 was added and enzyme activity was monitored by measuring the absorbance at 405 nm.
Because zinc is known to inhibit the enzyme activity of PSA, we further characterized the effect of GST-peptides on the enzyme activity of PSA by assessing the combined effect of peptides and Zn^2+. […] The effect of GST-C-4 and Zn^2+ on enzyme activity was determined by incubating PSA (0.33 μM) with the same molar concentration of GST-C-4 and various concentrations of Zn^2+. The reaction was monitored by measuring absorbance at 405 nm after addition of the chromogenic substrate S-2586. […] Data represent mean values from duplicate wells ±SE.
(§1) Data represent mean values from duplicate wells ±SE.
As control the enzyme activity of PSA alone was measured.
as §1
20 μg of the peptide was iodinated by the Iodogen method. After iodination the peptide was purified by using C18 Sep-Pak column.

PSA [2] = biological target: T1, PSA; assay: Surface plasmon resonance, GST-peptides on PSA captured by MAb H117; type: binding
Description: The binding kinetics of selected peptides to PSA was studied by surface plasmon resonance (29) on a BIAcore 2000™ instrument (Biacore AB, Uppsala, Sweden). PSA was captured to the solid phase by MAb H117 which binds to the same epitope as MAb 5E4 (30). The capture antibody was covalently coupled onto the surface of the CM5 sensor chip according to the manufacturer's instructions, using coupling levels of 5000 resonance units (RU). PSA was captured by injection of 416 nM of PSA in PBS, 4-min contact time (5 μl/min) and 60 min wash (20 μl/min) providing ligand levels in the range 500-600 RUs. Each analyte (GST-peptide), at various concentrations, was injected for 1 min at 20 μl/min flow rate. […] PSA-binding to either chemically activated/deactivated blank surface or MAb H117 alone was subtracted as a non-specific interaction. Regeneration after each measurement cycle was done with 3×0.5 min injections of 10 mM HCl. Binding data were analyzed using the BIAEVALUATION software.
The association rate constat (ka), dissociation rate constant (kd) and equilibrium dissociation constant (KD) for GST-peptides to PSA were measured by surface plasmon resonance. […]
The binding kinetics and affinity of the peptides to PSA was estimated by surface plasmon resonance. Increasing concentrations of GST-peptides were injected over PSA captured by MAb H117. Background-corrected sensorgrams were fitted to single-site interaction between GST-peptide and PSA using three different GST-peptide concentrations and the rate equation: d(GST-peptide:PSA)/dt=ka(GST-peptide)×(PSA)−kd(GST-peptide:PSA).

PSA [3] = biological target: T1, PSA; assay: PSA activity measurements with modified peptides, substrate S-2586 (Example 5); type: biochemical; conditions: ratio of OD 405 nm of PSA-peptide to PSA alone after 60 minutes; ratio > 1.1 interpreted as active
Description: PSA activity measurements: The effect of different peptides on the activity of PSA was studied by using chymotrypsin substrate S-2586 (MeO-Suc-Arg-Pro-Tyr-pNA) (Chromogenix, Mölndal, Sweden). 77 pmoles (2 μg) of PSA, substrate and 10 μmoles of different peptides were incubated in Tris-buffer (10 mM Tris and 150 mM NaCl at pH 7.8) with 0.2 mM concentration of the substrate at room temperature. PSA reaction without any peptide was used as basic level control. Reaction was measured after 60 minutes incubation at […] using Multiscan RC photometer (Labsystems, Finland). The effect of the peptides was calculated as a ratio from the OD value of PSA-peptide complex to PSA alone after 60 minutes incubation.

[4] = average at 3 analyte concentrations
[5] = zinc 0 μM, average of 3 fits, analyte 3.4-8.5 μM
[6] = zinc 1 μM, single fit, 3.4 μM peptide
[7] = zinc 10 μM, single fit, 3.4 μM peptide
[8] = zinc 30 μM, single fit, 3.4 μM peptide

Compound	EC50 (PSA [1]; PSA 0.33 μM, read-out: 50% stimulation (μM): peptide concentration required for half maximal stimulation of the enzyme activity of PSA) [µM]	minimum peptide concentration affecting the activity (PSA [1]) [nM]	ka × 10^3 (1/Ms) (PSA [2]; [4])	kd × 10^−3 (1/s) (PSA [2]; [4])	Kd (PSA [2]; [5]) [nM]	ka × 10^3 (1/Ms) (PSA [2]; [5])	kd × 10^−3 (1/s) (PSA [2]; [5])	increase (fold) of affinity (PSA [2]; zinc 1 μM versus 0 μM) [fold]	ka × 10^3 (1/Ms) (PSA [2]; [6])	kd × 10^−3 (1/s) (PSA [2]; [6])	increase (fold) of affinity (PSA [2]; zinc 10 μM versus 0 μM) [fold]	ka × 10^3 (1/Ms) (PSA [2]; [7])	kd × 10^−3 (1/s) (PSA [2]; [7])	increase (fold) of affinity (PSA [2]; zinc 30 μM versus 0 μM) [fold]	Kd (PSA [2]; [8]) [nM]	ka × 10^3 (1/Ms) (PSA [2]; [8])	kd × 10^−3 (1/s) (PSA [2]; [8])	PSA-peptide/PSA ratio (PSA [3])
CVFTSDYAFC [Peptide A-1]	2.2	300	10.3 × 10^3 1/Ms	80 × 10^−3 1/s	7800	10.3 × 10^3 1/Ms	80 × 10^−3 1/s	3	1.8 × 10^3 1/Ms	4.7 × 10^−3 1/s	5.9	1.2 × 10^3 1/Ms	1.6 × 10^−3 1/s	7.7	1000	1.9 × 10^3 1/Ms	2.0 × 10^−3 1/s	2.3
CC(C)C[C@@H]1NC(=O)[C@H](Cc2ccc(O)cc2)NC(=O)[C@H](CC(=O)O)NC(=O)[C@H](Cc2ccc(O)cc2)NC(=O)[C@H](CC(N)=O)NC(=O)[C@H](Cc2c[nH]cn2)NC(=O)[C@H](C)NC(=O)[C@H](Cc2ccccc2)NC(=O)[C@H](C(C)C)NC(=O)[C@@H](N)CSSC[C@@H](C(=O)O)NC(=O)[C@H](C(C)C)NC1=O [Peptide B-2] (H-CVFAHNYDYLVC-OH; disulfide 1-12; N-terminus assumed)		300		57 × 10^−3 1/s			57 × 10^−3 1/s			3.5 × 10^−3 1/s	6		1.6 × 10^−3 1/s	4.7			0.6 × 10^−3 1/s	3.0
